According to US12459898B2, “Polycationic amphiphiles as antimicrobial agents and methods using same” (Temple University-Of The Commonwealth System of Higher …, priority 2016, dated 2025):
Converted amounts (≈) assume the structure as drawn.

What was measured:
[1] = test system: methicillin-susceptible Staphylococcus aureus MSSA (SH1000); assay: Minimum inhibitory concentration (MIC), S. aureus; format: cell-based; conditions: MH media, 37° C., 72 hours, visual growth
Experimental: (§1) As used herein, the term “minimum inhibitory concentration (MIC)” refers to the lowest concentration of an antimicrobial agent that will inhibit the visible growth of a microorganism after overnight incubation. MIC values against bacteria, for example, the Gram-positive Staphylococcus aureus and Enterococcus faecalis and the Gram-negative Escherichia coli and Pseudomonas aeruginosa were determined by standard methods. See also P. A. Wayne, Methods for Dilution Antimicrobial Tests for Bacteria that Grow Aerobically; Approved Standard, Ninth Edition, 2012, CLSI Document M07-A9, Vol. 32 No. 2, which is incorporated by reference herein in its entirety.
(§2) For all biological assays, laboratory strains of methicillin-susceptible Staphylococcus aureus MSSA (SH1000), Enterococcus faecalis (OG1RF), Escherichia coli (MC4100), Pseudomonas aeruginosa (PAO1), community-acquired methicillin-resistant Staphylococcus aureus CA-MRSA (USA300-0114), and hospital-acquired methicillin-resistant Staphylococcus aureus HA-MRSA (ATCC 33591) were grown with shaking at 37° C. overnight from freezer stocks in 10 mL of the indicated media.
(§3) Compounds were serially diluted two-fold from stock solutions to yield twelve test concentrations. Overnight S. aureus, E. faecalis, E. coli, P. aeruginosa, USA300-0114 (CA-MRSA), and ATCC 33591 (HA-MRSA) cultures diluted to ca. 10^6 cfu/mL in MH media and 100 μL were inoculated into each well of a U-bottom 96-well plate (BD Biosciences, BD 351177) containing 100 μL of compound solution. Plates were incubated statically at 37° C. for 72 hours upon which time wells were evaluated visually for bacterial growth. The MIC was determined as the lowest concentration of compound resulting in no bacterial growth visible to the naked eye, based on the majority of three independent experiments. Aqueous DMSO controls were conducted as appropriate for each compound.

[2] = test system: Enterococcus faecalis (OG1RF); assay: Minimum inhibitory concentration (MIC), E. faecalis; format: cell-based; conditions: MH media, 37° C., 72 hours, visual growth
Experimental: as §1, §2, §3

[3] = test system: Escherichia coli (MC4100); assay: Minimum inhibitory concentration (MIC), E. coli; format: cell-based; conditions: MH media, 37° C., 72 hours, visual growth
Experimental: as §1, §2, §3

[4] = test system: Pseudomonas aeruginosa (PAO1); assay: Minimum inhibitory concentration (MIC), P. aeruginosa; format: cell-based; conditions: MH media, 37° C., 72 hours, visual growth
Experimental: as §1, §2, §3

[5] = test system: community-acquired methicillin-resistant Staphylococcus aureus CA-MRSA (USA300-0114); assay: Minimum inhibitory concentration (MIC), CA-MRSA; format: cell-based; conditions: MH media, 37° C., 72 hours, visual growth
Experimental: as §1, §2, §3

[6] = test system: hospital-acquired methicillin-resistant Staphylococcus aureus HA-MRSA (ATCC 33591); assay: microbe, parasite or virus in culture; format: cell-based; conditions: Staphylococcus aureus, 72 h, read-out: MIC, HA-MRSA
Experimental: as §1, §2, §3

[7] = test system: red blood cells (mechanically defibrinated sheep blood); assay: Red blood cell (RBC) lysis assay (Lysis20); format: cell-based; conditions: sheep RBCs in PBS, 37° C., 1 hour, absorbance 540 nm; Table 1
Description: These assessments followed standard protocols (Minbiole et al., 2016, Tetrahedron, 72: 3559-3566, Forman et al., 2016, ChemMedChem, 11: 1401-1405, Forman et al., 2016, ChemMedChem, 11: 958-962, Mitchell et al., 2015, ChemBioChem, 16: 2299-2303, Jennings et al., 2015, ACS Inf. Dis, 1: 304-308, Paniak et al., 2014, Bioorg. Med. Chem. Lett, 24: 5824-5828, Ator et al., 2014, Bioorg. Med. Chem. Lett, 24: 3706-3709, Jennings et al., 2014, ChemBioChem, 15: 2211-2215, Black et al., 2014, Bioorg. Med. Chem. Lett, 24, 99-102, Grenier et al., 2012, Bioorg. Med. Chem. Lett, 22: 4055-4058).
RBC lysis assays were performed on mechanically defibrinated sheep blood (Hemostat Labs: DSB030). 1.5 mL of blood was placed into a microcentrifuge tube and centrifuged at 10,000 rpm for ten minutes. The supernatant was removed and the cells were resuspended with 1 mL of phosphate-buffered saline (PBS). The suspension was centrifuged as previously, the supernatant was removed, and cells were resuspended two more times. The final cell suspension was diluted twentyfold with PBS. The twentyfold suspension dilution was then aliquoted into microcentrifuge tubes containing compound serially diluted in PBS. TritonX (1% by volume) served as a positive control (100% lysis marker) and sterile PBS served as a negative control (0% lysis marker). Samples were then placed in an incubator at 37° C. and shaken at 200 rpm. After 1 hour, the samples were centrifuged at 10,000 rpm for ten minutes. The absorbance of the supernatant was measured with a UV spectrometer at a 540 nm wavelength.

[8] = Stability of the prepared amphiphiles; format: physicochemical; conditions: observation after preparation
Experimental: (§4) For the tris-pyridine system, it was initially attempted to alkylate the commercially available O3Pyr, which led to no reaction under a number of SN2-type reaction conditions, presumably due to steric hindrance next to the nucleophilic pyridine nitrogen. The preparation of the “para” isomer via a precedented reductive amination shown in FIG. 4 (52%) was then carried out (Oh et al., 2007, Korean Chem. Soc, 28: 2193-2194, Abdel-Magid et al., 1996, J. Org. Chem, 61: 3849-3862). […] Attempts to prepare homologs led to variable yields and unacceptable purity. While not wishing to be bound by any particular theory it was hypothesized that this could have resulted from a fragmentation event driven by the central nitrogen, which might be circumvented by a change in the electronic distribution of the QAC. […] These amphiphiles were prepared in 71-97% yields, again after recrystallization or trituration. […]

[9] = test system: six bacteria (SA, EF, EC, PA, CA-MRSA, HA-MRSA); assay: Antimicrobial activity (MIC) over the panel of six bacteria; format: cell-based
Experimental: as §4
Compounds were serially diluted two-fold from stock solutions to yield twelve test concentrations. […] Plates were incubated statically at 37° C. for 72 hours upon which time wells were evaluated visually for bacterial growth. The MIC was determined as the lowest concentration of compound resulting in no bacterial growth visible to the naked eye, based on the majority of three independent experiments. […]

Structure (SMILES) | MIC [1] [µM] | MIC [2] [µM] | MIC [3] [µM] | MIC [4] [µM] | MIC [5] [µM] | MIC [6] [µM] | Lysis20 (highest concentration at which <20% of RBCs are lysed) [7] [μm] | stability [8] | antimicrobial activity / bioactivity in words [9]
CCCCCCCCCC[n+]1ccc(CN(Cc2cc[n+](CCCCCCCCCC)cc2)Cc2cc[n+](CCCCCCCCCC)cc2)cc1 [P3Pyr-10,10,10] | 0.5 | 1 | 1 | 2 | 0.5 | 0.5 | 4 | poor stability | 
CCCCCCCCCCCCCCCCCC[n+]1ccc(CCCc2cc[n+](CCCCCCCCCCCCCCCCCC)cc2)cc1 [2Pyr-18,18] | 8 | 8 | > 250 | > 250 | 4 | 16 | 32 |  | 
CCCCCCCCCCCC[n+]1ccc(CN(Cc2cc[n+](CCCCCCCCCCCC)cc2)Cc2cc[n+](CCCCCCCCCCCC)cc2)cc1 [P3Pyr-12,12,12] | 2 | 2 | 2 | 8 | 1 | 2 | 8 | poor stability | 
CCCCCCCCCCCCCC[n+]1cccc(CN(Cc2ccc[n+](CCCCCCCCCCCCCC)c2)Cc2ccc[n+](CCCCCCCCCCCCCC)c2)c1 [M3Pyr-14,14,14] | 2 | 2 | 4 | 32 | 1 | 1 | 4 |  | 
CCCCCCCCCCCCC[n+]1cccc(CN(Cc2ccc[n+](CCCCCCCCCCCCC)c2)Cc2ccc[n+](CCCCCCCCCCCCC)c2)c1 [M3Pyr-13,13,13] | 1 | 1 | 2 | 8 | 0.25 | 0.5 | 2 |  | 
CCCCCCCCCCC[n+]1ccc(CCCc2cc[n+](CCCCCCCCCCC)cc2)cc1 [2Pyr-11,11] | 0.5 | 0.25 | 0.5 | 2 | 0.25 | 0.5 | 8 |  | nanomolar inhibition against 5 of 6 bacteria tested
c1cncc(CN(Cc2cccnc2)Cc2cccnc2)c1 [Compound M3Pyr, reference compound] | 250 (≈ 72.6 µg/mL) | > 250 | > 250 | > 250 | 250 (≈ 72.6 µg/mL) | 250 (≈ 72.6 µg/mL) | >250 |  | 
CCCCCCCCCCCCCC[n+]1ccc(CCCc2cc[n+](CCCCCCCCCCCCCC)cc2)cc1 [2Pyr-14,14] | 8 | 1 | 4 | 250 | 2 | 2 | 63 |  | 
CCCCCCCCCCCCCCCC[n+]1cccc(CN(Cc2ccc[n+](CCCCCCCCCCCCCCCC)c2)Cc2ccc[n+](CCCCCCCCCCCCCCCC)c2)c1 [M3Pyr-16,16,16] | 2 | 8 | 125 | ≥ 250 | 4 | 2 | 4 |  | 
